From patent US6355799B1, “Substituted benzene compounds, process for their preparation, and herbicidal and defoliant compositions containing them” (ISK Americas Incorporated, priority 1997, dated 2002)

Legend:
Type in all cases: in vivo
[1] = system: redroot pigweed (Amaranthus retroflexus, AMARE); assay: Pre-emerge test, greenhouse herbicide activity screening; details: rated 14 days after application, 0 = no damage, 100 = complete death
Method in brief: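 Rating: 0–100 visual injury, 14 DAA. Application: acetone, 187 l/ha, 15–1000 g ai/ha, flat-fan track sprayer with nozzle 40–45 cm above soil or canopy. Post-emerge runs used 0.25% v/v surfactant on 2–3 leaf plants.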

[2] = system: johnsongrass (Sorghum halepense, SORHA); assay: as above; details: rated 14 days after application, 0 = no damage, 100 = complete death
Method in brief: (§1)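 Visual ratings on a 0-100 scale (0 no damage, 100 all plants dead) were taken at 14 days after treatment. Rates of 15-1000 g ai/ha in acetone, 187 l/ha, were sprayed onto soil one day after planting (pre-emerge) or onto 2-3 leaf plants with 0.25% v/v surfactant (post-emerge).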

[3] = system: barnyardgrass (Echinochloa crus-galli, ECHCG); assay: as above; details: rated 14 days after application, 0 = no damage, 100 = complete death
Method in brief: as §1

[4] = system: common ragweed (Ambrosia artemisizfolia L., AMBEL); assay: as above; details: rated 14 days after application, 0 = no damage, 100 = complete death
Method in brief: as §1

[5] = system: green foxtail (Setaria viridis, SETVI); assay: as above; details: rated 14 days after application, 0 = no damage, 100 = complete death
Method in brief: as §1

[6] = system: large crabgrass (Digitaria sanguinalis, DIGSA); assay: as above; details: rated 14 days after application, 0 = no damage, 100 = complete death
Method in brief: as §1

[7] = system: lambsquarters (Chenopodium album, CHEAL); assay: as above; details: rated 14 days after application, 0 = no damage, 100 = complete death
Method in brief: as §1

[8] = system: ivyleaf morningglory (Ipomoea hederacea, IPOHE); assay: as above; details: rated 14 days after application, 0 = no damage, 100 = complete death
Method in brief: as §1

[9] = system: velvetleaf (Abutilon theophrasti, ABUTH); assay: as above; details: rated 14 days after application, 0 = no damage, 100 = complete death
Method in brief: as §1

[10] = system: sicklepod (Cassia obtusifolia, CASOB); assay: as above; details: rated 14 days after application, 0 = no damage, 100 = complete death
Method in brief: as §1

[11] = system: johnsongrass (Sorghum halepense, SORHA); assay: Post-emerge test, greenhouse herbicide activity screening; details: post-emerge, 14 days after application, rating scale 0-100
Method in brief: (§2)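 Compounds in acetone were track-sprayed at 187 l/ha, 15–1000 g ai/ha, onto sandy loam pots. Pre-emerge seeds were sown one day before spraying, with surface watering afterwards. Post-emerge plants were at the 2–3 leaf stage and sprayed with 0.25% v/v non-ionic surfactant. Injury was rated 0–100 at 14 days.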

[12] = system: barnyardgrass (Echinochloa crus-galli, ECHCG); assay: as above; details: post-emerge, 14 days after application, rating scale 0-100
Method in brief: as §2

[13] = system: redroot pigweed (Amaranthus retroflexus, AMARE); assay: as above; details: post-emerge, 14 days after application, rating scale 0-100
Method in brief: as §2

[14] = system: common ragweed (Ambrosia artemisizfolia L., AMBEL); assay: as above; details: post-emerge, 14 days after application, rating scale 0-100
Method in brief: as §2

[15] = system: green foxtail (Setaria viridis, SETVI); assay: as above; details: post-emerge, 14 days after application, rating scale 0-100
Method in brief: as §2

[16] = system: large crabgrass (Digitaria sanguinalis, DIGSA); assay: as above; details: post-emerge, 14 days after application, rating scale 0-100
Method in brief: as §2

[17] = system: lambsquarters (Chenopodium album, CHEAL); assay: as above; details: post-emerge, 14 days after application, rating scale 0-100
Method in brief: as §2

[18] = system: ivyleaf morningglory (Ipomoea hederacea, IPOHE); assay: as above; details: post-emerge, 14 days after application, rating scale 0-100
Method in brief: as §2

[19] = system: velvetleaf (Abutilon theophrasti, ABUTH); assay: as above; details: post-emerge, 14 days after application, rating scale 0-100
Method in brief: as §2

[20] = system: sicklepod (Cassia obtusifolia, CASOB); assay: as above; details: post-emerge, 14 days after application, rating scale 0-100
Method in brief: as §2

[21] = system: upland rice (Oryza sp., var. Tebonnet, RICE); assay: Pre-emerge test, crop safety; details: rated 14 days after application, 0 = no damage, 100 = complete death
Method in brief: (§3)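 Applied at 15–1000 g ai/ha from acetone in 187 l/ha spray volume. Post-emergence applications included 0.25% v/v non-ionic surfactant and reached plants sown 8–21 days before. Pre-emergence applications were incorporated by surface watering. Efficacy or crop damage was rated on a 0–100 scale after 14 days.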

[22] = system: field corn (Zea mays L., var. Dekalb 535, CORN); assay: Pre-emerge test, crop safety; details: rated 14 days after application, 0 = no damage, 100 = complete death
Method in brief: as §3

[23] = system: upland rice (Oryza sp., var. Tebonnet, RICE); assay: Post-emerge test, crop safety; details: post-emerge, 14 days after application, rating scale 0-100
Method in brief: as §1

[24] = system: field corn (Zea mays L., var. Dekalb 535, CORN); assay: Post-emerge test, crop safety; details: post-emerge, 14 days after application, rating scale 0-100
Method in brief: as §1

For `COc1c(Cl)cc(F)c(-n2c(=O)cc(C(F)(F)F)n(C)c2=O)c1NC(=O)c1ccc(F)cc1F` [Compound 2-42, 3-[4-chloro-2-(2,4difluorobenzoyl)amino-6-fluoro-3-methoxyphenyl]-1-methyl-6-trifluoromethyl-2,4(1H 3H)-pyrimidinedione], the “Pre-emerge Herbicidal Activity, phytotoxicity rating (0-100), AMARE” value ([1]; 63 g ai/ha) was 100, the “Pre-emerge Herbicidal Activity, phytotoxicity rating (0-100), AMARE” value ([1]; 250 g ai/ha) was 100 and the “Pre-emerge Herbicidal Activity, phytotoxicity rating (0-100), SORHA” value ([2]; 63 g ai/ha) was 95. For the same compound, the “Pre-emerge Herbicidal Activity, phytotoxicity rating (0-100), SORHA” value ([2]; 250 g ai/ha) was 100, the “Pre-emerge Herbicidal Activity, phytotoxicity rating (0-100), ECHCG” value ([3]; 63 g ai/ha) was 100 and the “Pre-emerge Herbicidal Activity, phytotoxicity rating (0-100), ECHCG” value ([3]; 250 g ai/ha) was 100. The “Pre-emerge Herbicidal Activity, phytotoxicity rating (0-100), AMBEL” value ([4]; 63 g ai/ha) was 100, the “Pre-emerge Herbicidal Activity, phytotoxicity rating (0-100), AMBEL” value ([4]; 250 g ai/ha) was 100 and the “Pre-emerge Herbicidal Activity, phytotoxicity rating (0-100), SETVI” value ([5]; 63 g ai/ha) was 100. For the same compound, the “Pre-emerge Herbicidal Activity, phytotoxicity rating (0-100), SETVI” value ([5]; 250 g ai/ha) was 100, the “Pre-emerge Herbicidal Activity, phytotoxicity rating (0-100), DIGSA” value ([6]; 63 g ai/ha) was 100 and the “Pre-emerge Herbicidal Activity, phytotoxicity rating (0-100), DIGSA” value ([6]; 250 g ai/ha) was 100. For the same compound, the “Pre-emerge Herbicidal Activity, phytotoxicity rating (0-100), CHEAL” value ([7]; 63 g ai/ha) was 100, the “Pre-emerge Herbicidal Activity, phytotoxicity rating (0-100), CHEAL” value ([7]; 250 g ai/ha) was 100 and the “Pre-emerge Herbicidal Activity, phytotoxicity rating (0-100), IPOHE” value ([8]; 63 g ai/ha) was 100. The “Pre-emerge Herbicidal Activity, phytotoxicity rating (0-100), IPOHE” value ([8]; 250 g ai/ha) was 100, the “Pre-emerge Herbicidal Activity, phytotoxicity rating (0-100), ABUTH” value ([9]; 63 g ai/ha) was 100 and the “Pre-emerge Herbicidal Activity, phytotoxicity rating (0-100), ABUTH” value ([9]; 250 g ai/ha) was 100. The “Pre-emerge Herbicidal Activity, phytotoxicity rating (0-100), CASOB” value ([10]; 63 g ai/ha) was 80, the “Pre-emerge Herbicidal Activity, phytotoxicity rating (0-100), CASOB” value ([10]; 250 g ai/ha) was 100 and the “phytotoxicity rating SORHA” value ([11]; 63 g ai/ha) was 10. For the same compound, the “phytotoxicity rating SORHA” value ([11]; 250 g ai/ha) was 95, the “phytotoxicity rating ECHCG” value ([12]; 63 g ai/ha) was 30 and the “phytotoxicity rating ECHCG” value ([12]; 250 g ai/ha) was 80. The “phytotoxicity rating AMARE” value ([13]; 63 g ai/ha) was 95, the “phytotoxicity rating AMARE” value ([13]; 250 g ai/ha) was 100 and the “phytotoxicity rating AMBEL” value ([14]; 63 g ai/ha) was 70. The “phytotoxicity rating AMBEL” value ([14]; 250 g ai/ha) was 95, the “phytotoxicity rating SETVI” value ([15]; 63 g ai/ha) was 50 and the “phytotoxicity rating SETVI” value ([15]; 250 g ai/ha) was 80. For the same compound, the “phytotoxicity rating DIGSA” value ([16]; 63 g ai/ha) was 0, the “phytotoxicity rating DIGSA” value ([16]; 250 g ai/ha) was 30 and the “phytotoxicity rating CHEAL” value ([17]; 63 g ai/ha) was 90. For the same compound, the “phytotoxicity rating CHEAL” value ([17]; 250 g ai/ha) was 100, the “phytotoxicity rating IPOHE” value ([18]; 63 g ai/ha) was 100 and the “phytotoxicity rating IPOHE” value ([18]; 250 g ai/ha) was 100. For the same compound, the “phytotoxicity rating ABUTH” value ([19]; 63 g ai/ha) was 100, the “phytotoxicity rating ABUTH” value ([19]; 250 g ai/ha) was 100 and the “phytotoxicity rating CASOB” value ([20]; 63 g ai/ha) was 65. For the same compound, the “phytotoxicity rating CASOB” value ([20]; 250 g ai/ha) was 100, the “Pre-emerge phytotoxicity rating (0-100), crop damage, RICE” value ([21]; 63 g ai/ha) was 90 and the “Pre-emerge phytotoxicity rating (0-100), crop damage, RICE” value ([21]; 250 g ai/ha) was 99. The “Pre-emerge phytotoxicity rating (0-100), crop damage, CORN” value ([22]; 63 g ai/ha) was 85, the “Pre-emerge phytotoxicity rating (0-100), crop damage, CORN” value ([22]; 250 g ai/ha) was 98 and the “phytotoxicity rating RICE” value ([23]; 63 g ai/ha) was 60. The “phytotoxicity rating RICE” value ([23]; 250 g ai/ha) was 90, the “phytotoxicity rating CORN” value ([24]; 63 g ai/ha) was 10 and the “phytotoxicity rating CORN” value ([24]; 250 g ai/ha) was 60.
